# What was measured:
# Assay in all cases: relative viability (nuclei count vs DMSO), 5 days (fraction); higher = more cells survive
# Bortezomib + Crizotinib = compound: CC(C)C[C@H](NC(=O)[C@H](Cc1ccccc1)NC(=O)c1cnccn1)B(O)O [Bortezomib] + C[C@@H](Oc1cc(-c2cnn(C3CCNCC3)c2)cnc1N)c1c(Cl)ccc(F)c1Cl [Crizotinib] (partner 1 µM)
# Method in brief: (§1)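 Five library-drug doses in √10 steps were combined with a fixed anchor-drug dose, or a single drug was given alone, by pin tool to lung cancer cell lines in 1536-well plates the day after seeding. Nuclei were stained and counted after 5 days. Relative viability is the nuclei count in treated wells over that in vehicle wells, taken as the median of duplicate plates.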
# [1] = compound: CC1=CC(=NN1)NC2=CC(=NC(=N2)/C=C/C3=CC=CC=C3)N4CCN(CC4)C + CS(=O)(=O)CCNCc1ccc(-c2ccc3ncnc(Nc4ccc(OCc5cccc(F)c5)c(Cl)c4)c3c2)o1 [Lapatinib] (partner 2 µM)
# Method in brief: as §1
# [2] = compound: CC1=CC(=NN1)NC2=CC(=NC(=N2)/C=C/C3=CC=CC=C3)N4CCN(CC4)C + C[C@@H](Oc1cc(-c2cnn(C3CCNCC3)c2)cnc1N)c1c(Cl)ccc(F)c1Cl [Crizotinib] (partner 1 µM)
# Method in brief: as §1
# [3] = compound: CC1=CC(=NN1)NC2=CC(=NC(=N2)/C=C/C3=CC=CC=C3)N4CCN(CC4)C + NC(=O)Nc1cc(-c2cccc(F)c2)sc1C(=O)N[C@H]1CCCNC1 [AZD7762] (partner 0.2 µM)
# Method in brief: as §1
Cell Line,relative viability (Bortezomib + Crizotinib; first compound 0.0002 µM),relative viability (Bortezomib + Crizotinib; first compound 0.000632 µM),relative viability (Bortezomib + Crizotinib; first compound 0.002 µM),relative viability (Bortezomib + Crizotinib; first compound 0.006325 µM),relative viability (Bortezomib + Crizotinib; first compound 0.02 µM),relative viability ([1]; first compound 0.08 µM),relative viability ([1]; first compound 0.253 µM),relative viability ([1]; first compound 0.8 µM),relative viability ([1]; first compound 2.53 µM),relative viability ([1]; first compound 8 µM),relative viability ([2]; first compound 0.08 µM),relative viability ([2]; first compound 0.253 µM),relative viability ([2]; first compound 0.8 µM),relative viability ([2]; first compound 2.53 µM),relative viability ([2]; first compound 8 µM),relative viability ([3]; first compound 0.08 µM),relative viability ([3]; first compound 0.253 µM),relative viability ([3]; first compound 0.8 µM),relative viability ([3]; first compound 2.53 µM),relative viability ([3]; first compound 8 µM)
HCC-827,0.915,0.837,0.783,0.251,0.116,0.201,0.168,0.212,0.146,0.124,0.91,0.999,0.877,0.636,0.381,0.188,0.199,0.217,0.197,0.0973
HOP-62,,1.01,0.35,0.235,0.048,1.06,0.973,0.956,0.558,0.307,0.985,0.963,0.979,0.706,0.229,0.673,0.615,0.778,0.385,0.159
LC-2-ad,,0.476,0.403,0.291,0.19,0.701,0.928,0.899,0.0949,0.0594,0.475,0.469,0.365,0.303,0.186,0.778,0.928,0.676,0.16,0.12
LCLC-97TM1,0.4,0.329,0.111,0.114,0.118,1.29,1.06,0.922,0.158,0.0857,0.381,0.352,0.292,0.152,0.078,0.177,0.251,0.236,0.139,0.0567
LK-2,,0.243,0.277,0.207,0.222,0.885,0.852,0.852,0.604,0.181,0.193,0.221,0.208,0.262,0.203,0.245,0.364,0.323,0.0834,0.0556
LOU-NH91,0.749,0.708,0.342,0.314,0.319,0.669,0.785,0.698,0.567,0.333,0.775,0.757,0.741,0.706,0.403,0.782,0.834,0.733,0.518,0.336
LU99A,0.592,,0.561,0.274,0.153,0.958,0.943,0.728,0.252,0.125,0.554,0.549,0.452,0.16,0.13,0.298,0.376,0.252,0.14,0.0858
LXF-289,0.809,0.795,0.896,0.0729,0.0698,0.918,0.969,0.839,0.487,0.574,0.817,0.825,0.682,0.23,0.0611,1.06,1.11,1.04,0.685,0.102
NCI-H23,,0.491,0.417,0.128,0.0919,0.981,1.37,1,0.46,0.139,0.559,0.603,0.439,0.181,0.108,0.246,0.186,0.23,0.094,0.101
NCI-H322M,0.977,,0.99,0.985,0.36,0.56,0.67,0.507,0.321,0.208,0.97,0.866,0.817,0.447,0.128,0.555,0.6,0.615,0.403,0.302
NCI-H358,0.63,0.56,0.503,0.126,0.113,0.511,0.471,0.335,0.147,0.134,0.607,0.478,0.264,0.14,0.11,0.574,0.528,0.424,0.195,0.154
NCI-H460,0.979,0.832,0.927,0.0481,0.0102,0.909,0.952,0.943,0.0124,0.0122,0.948,0.839,0.159,0.0358,0.0091,0.6,0.72,0.681,0.372,0.0422
NCI-H596,0.98,0.957,1.02,0.224,0.182,0.976,1.09,0.912,0.505,0.286,0.984,1.04,0.857,0.554,0.197,1.07,1.14,1.04,0.583,0.279
NCI-H647,0.993,0.954,0.627,0.0302,0.0195,1.02,1.29,1.08,0.0749,0.0425,1.19,1.06,0.683,0.0821,0.0474,0.328,0.598,0.499,0.103,0.0452
NCI-H727,0.774,0.864,0.91,0.155,0.0951,0.744,0.525,0.805,0.494,0.193,0.856,0.805,0.767,0.348,0.185,0.571,0.427,0.601,0.55,0.381
NCI-H838,0.822,0.811,0.916,0.348,0.123,1.03,1.28,0.831,0.214,0.091,0.89,0.936,0.742,0.434,0.0999,0.963,1.09,0.99,0.782,0.623

# Source: the supplement of paper PMC10307832
